In US9901573B2, “Compositions, methods, and kits for regulating energy metabolism” (NuSirt Sciences, Inc., priority 2012, dated 2018):
Marks after values point to notes of the source that are not given here.

Tests used:
C2C12 myotubes [1] = assay: Glucose utilization (extracellular acidification) in myotubes; assay type: cell-based; conditions: FIG. 9
Experimental: (§1) Cell Culture: C2C12 and 3T3-L1 preadipocytes (American Type Culture Collection) were plated at a density of 8000 cells/cm^2 (10 cm^2 dish) and grown in Dulbecco's modified eagle's medium (DMEM) containing 10% fetal bovine serum (FBS), and antibiotics (growth medium) at 37° C. in 5% CO2. Confluent 3T3-L1 preadipocytes were induced to differentiate with a standard differentiation medium consisting of DMEM medium supplemented with 10% FBS, 250 nM dexamethasone, 0.5 mM 3-Isobutyl-1-methylxanthine (IBMX) and 1% penicillin-streptomycin. Preadipocytes were maintained in this differentiation medium for 3 days and subsequently cultured in growth medium. Cultures were re-fed every 2-3 days to allow >90% cells to reach fully differentiation before conducting chemical treatment. […]
(§2) Glucose Utilization: In the absence of a fatty acid source and oxidative metabolism, glycolysis and subsequent lactate production results in extracellular acidification, which was also measured using a Seahorse Bioscience XF24 analyzer. […] Data for each sample were normalized to the pre-glucose injection baseline for that sample and expressed as % change from that baseline. The area under of the curve of extracellular acidification change from baseline for each sample was the calculated and used for subsequent analysis.

3T3-L1 adipocytes [2] = assay: Glucose utilization (extracellular acidification) in adipocytes; assay type: cell-based; conditions: FIG. 10
Experimental: as §1, §2

Sirt1 = Sirt1 protein expression Western blot in myotubes; assay type: cell-based, mouse; conditions: C2C12 myotubes, FIG. 12
Experimental: as §1
Western blot: The Phospho-AMPKα (Thr172)- and Sirt1 (mouse specific)-antibody was obtained from Cell Signaling (Danvers, Mass.). […] Protein was measured by BCA kit (Thermo Scientific). […] Visualization and chemiluminescent detection was conducted using BioRad ChemiDoc instrumentation and software (Bio-Rad Laboratories, Hercules, Calif.) and band intensity was assessed using Image Lab 4.0 (Bio-Rad Laboratories, Hercules, Calif.), with correction for background and loading controls. P-AMPK was detected at 61-66 kDA and Sirt1 was detected at 104-115 kDA.

3T3-L1 adipocytes [3] = assay: Intracellular Ca2+ by fura-2 imaging in adipocytes; assay type: cell-based
Experimental: Cell culture: 3T3-L1 pre-adipocytes were incubated at a density of 8000 cells/cm^2 (10 cm^2 dish) and grown in the absence of insulin in Dulbecco's modified Eagle's medium (DMEM) containing 10% FBS and antibiotics (1% penicillin-streptomycin)(adipocyte medium) at 37° C. in 5% CO2 in air. Confluent pre-adipocytes were induced to differentiate with a standard differentiation medium consisting of DMEM-F10 (1:1, vol/vol) medium supplemented with 1% fetal bovine serum (FBS), 250 nM dexamethasone (DEXA), isobutylmethylxanthine (IBMX) (0.5 mM) and antibiotics. Pre-adipocytes were maintained in this differentiation medium for 3 days (unless specifically indicated) and subsequently cultured in adipocyte medium. Cultures were re-fed every 2-3 days to allow 90% cells to reach fully differentiation before treatment.
Intracellular Ca^2+ ([Ca^2+]i): [Ca^2+]i was measured using a fura-2 dual wavelength fluorescence imaging system. Adipocytes were plated and differentiated in 35 mm dishes with glass coverslips (P35G-0-14-C, MatTek Corporation). Prior to [Ca^2+]i measurement, cells were preincubated in serum-free medium overnight and rinsed with Hepes Balanced Salt Solution (HBSS) containing the following components (in mM): NaCl 138, CaCl2 1.8, MgSO4 0.8, NaH2PO4 0.9, NaHCO3 4, glucose 5, glutamine 6, Hepes 20, and bovine serum albumin 1%. Cells were loaded with fura-2 acetoxymethyl ester (AM) (10 μM) in the same buffer for 2 hr at 37° C. in a dark incubator with 5% CO2. To remove extracellular dye, cells were rinsed with HBSS 3 times and then postincubated at room temperature for an additional 1 hr for complete hydrolysis of cytoplasmic fura-2 AM. The dishes with dye-loaded cells were mounted on the stage of Nikon TMS-F fluorescence inverted microscope with a Cohu 4915 CCD camera. Fluorescent images were captured alternatively at excitation wavelength of […] with an emission wavelength of 520 nm. [Ca^2]i was calculated using a standard ratio equation. Each analysis evaluated responses of 8-10 representative whole cells. Images were analyzed with InCytIm2 version 4.62 imaging software (Intracellular Imaging, Cincinnati, Ohio). Images were calibrated using a fura-2 calcium imaging calibration kit (Molecular Probes, Eugene, Oreg.) to create a calibration curve in solution, and cellular calibration was accomplished using digitonin (25 μM) and pH 8.7 Tris-EGTA (100 mM) to measure maximal and minimal [Ca^2+]i levels.

C2C12 myotubes [4] = assay: Fatty acid oxidation (O2 consumption response to palmitate) in myotubes; assay type: cell-based; conditions: vs control
Experimental: Cell Culture: C2C12 and 3T3-L1 preadipocytes (American Type Culture Collection) were plated at a density of 8000 cells/cm^2 (10 cm^2 dish) and grown in Dulbecco's modified eagle's medium (DMEM) containing 10% fetal bovine serum (FBS), and antibiotics (growth medium) at 37° C. in 5% CO2. Confluent 3T3-L1 preadipocytes were induced to differentiate with a standard differentiation medium consisting of DMEM medium supplemented with 10% FBS, 250 nM dexamethasone, 0.5 mM 3-Isobutyl-1-methylxanthine (IBMX) and 1% penicillin-streptomycin. Preadipocytes were maintained in this differentiation medium for 3 days and subsequently cultured in growth medium. Cultures were re-fed every 2-3 days to allow >90% cells to reach fully differentiation before conducting chemical treatment. For differentiation of C2C12 cells, cells were grown to 100% confluence, transferred to differentiation medium (DMEM with 2% horse serum and 1% penicillin-streptomycin), and fed with fresh differentiation medium every day until myotubes were fully formed (3 days). Fatty acid oxidation: Cellular oxygen consumption was measured using a Seahorse Bioscience XF24 analyzer (Seahorse Bioscience, Billerica, Mass.) in 24-well plates at 37° C., as described by Feige et al (1) with slight modifications. Cells were seeded at 40,000 cells per well, differentiated as described above, treated for 24 hours with the indicated treatments, washed twice with non-buffered carbonate-free pH 7.4 low glucose (2.5 mM) DMEM containing carnitine (0.5 mM), equilibrated with 550 μL of the same media in a non-CO2 incubator for 45 minutes, and then inserted into the instrument for 15 minutes of further equilibration, followed by O2 consumption measurement. Three successive baseline measurements at five-minute intervals were taken prior to injection of palmitate (200 μM final concentration). Four successive 5-minute measurements of O2 consumption were then conducted, followed by 10 minute re-equilibration and another 3-4 5-minute measurements. This measurement pattern was then repeated over a 4-6 hour period. Data for each sample were normalized to the pre-palmitate injection baseline for that sample and expressed as % change from that baseline. […] The area under of the curve of O2 consumption change from baseline for each sample was then calculated and used for subsequent analysis.

Phospho-AMPKα (Thr172) = Phospho-AMPKα (Thr172) Western blot in myotubes; assay type: cell-based; conditions: C2C12 myotubes, FIG. 11
Experimental: (§3) Cell Culture: C2C12 and 3T3-L1 preadipocytes (American Type Culture Collection) were plated at a density of 8000 cells/cm^2 (10 cm^2 dish) and grown in Dulbecco's modified eagle's medium (DMEM) containing 10% fetal bovine serum (FBS), and antibiotics (growth medium) at 37° C. in 5% CO2. Confluent 3T3-L1 preadipocytes were induced to differentiate with a standard differentiation medium consisting of DMEM medium supplemented with 10% FBS, 250 nM dexamethasone, 0.5 mM 3-Isobutyl-1-methylxanthine (IBMX) and 1% penicillin-streptomycin. Preadipocytes were maintained in this differentiation medium for 3 days and subsequently cultured in growth medium. Cultures were re-fed every 2-3 days to allow >90% cells to reach fully differentiation before conducting chemical treatment. For differentiation of C2C12 cells, cells were grown to 100% confluence, transferred to differentiation medium (DMEM with 2% horse serum and 1% penicillin-streptomycin), and fed with fresh differentiation medium every day until myotubes were fully formed (3 days).
Western blot: The Phospho-AMPKα (Thr172)- and Sirt1 (mouse specific)-antibody was obtained from Cell Signaling (Danvers, Mass.). C2C12 myotubes were treated as indicated in results and the cellular fractions were prepared using standard methods. Protein was measured by BCA kit (Thermo Scientific). […] Visualization and chemiluminescent detection was conducted using BioRad ChemiDoc instrumentation and software (Bio-Rad Laboratories, Hercules, Calif.) and band intensity was assessed using Image Lab 4.0 (Bio-Rad Laboratories, Hercules, Calif.), with correction for background and loading controls. P-AMPK was detected at 61-66 kDA and Sirt1 was detected at 104-115 kDA.

C2C12 myotubes [5] = assay: Mitochondrial biogenesis (mitochondrial mass, NAO probe); assay type: cell-based; conditions: FIG. 13
Experimental: as §3, with “days). Mitochondrial biogenesis: Mitochondrial biogenesis was assessed as change in mitochondrial mass, as previously described (2). The mitochondrial probe NAO (Invitrogen, Carlsbad, Calif.) was used to analyze mitochondrial mass by fluorescence (excitation 485 nm and emission 520 nm) and quantitative data was obtained with a fluorescence microplate reader (Synergy HT, BioTek Instruments, Winooski, Vt.). The intensity of fluorescence was expressed as arbitrary units per μg protein and normalized to control values within each assay.” for “days).”

3T3-L1 adipocytes [6] = assay: Fatty acid oxidation (O2 consumption response to palmitate) in adipocytes; assay type: cell-based; conditions: FIG. 8, % change from control
Experimental: as §1
Fatty acid oxidation: Cellular oxygen consumption was measured using a Seahorse Bioscience XF24 analyzer (Seahorse Bioscience, Billerica, Mass.) in 24-well plates at 37° C., as described by Feige et al (1) with slight modifications. […] Data for each sample were normalized to the pre-palmitate injection baseline for that sample and expressed as % change from that baseline. […] The area under of the curve of O2 consumption change from baseline for each sample was then calculated and used for subsequent analysis.

[7] = FIG. 4/5, 24 hours, leucine, valine, isoleucine 0.5 mM, B6 100 nM as pyridoxal phosphate

Row | Compound | increase in glucose utilization (C2C12 myotubes [1]) | increase in glucose utilization (3T3-L1 adipocytes [2]) | Sirt1 protein levels, increase (Sirt1) | Intracellular Ca2+ (3T3-L1 adipocytes [3]; PLP 50 nM) | Intracellular Ca2+ (3T3-L1 adipocytes [3]; PLP 100 nM) | increase in fatty acid oxidation (C2C12 myotubes [4]; [7]) | AMPK activation (Phosphorylated AMPK Thr172), increase (Phospho-AMPKα (Thr172)) | increase in mitochondrial biogenesis (mitochondrial biomass) (C2C12 myotubes [5]) | increase in fatty acid oxidation (3T3-L1 adipocytes [6]) | increase in fatty acid oxidation (C2C12 myotubes [4]; FIG. 6/7, metformin 100 μM)
1 | Cc1ncc(COP(=O)(O)O)c(C=O)c1O [PLP, pyridoxal phosphate] | no independent effect | no independent effect | unaffected | 133.2^c ± nM | 96.3^b ± nM | no significant independent effect | Neither treatment with leucine, valine, nor B6 alone exerted any significant effect |  |  | 
2 | CC[C@H](C)[C@H](N)C(=O)O [isoleucine] |  |  |  |  |  | small change in fatty acid oxidation when compared to control |  | no significant effect | small change from baseline | 
3 | CN(C)C(=N)N=C(N)N [metformin] |  |  |  |  |  |  |  | effect similar to leucine |  | comparable effect
4 | CC(C)[C@H](N)C(=O)O [valine] |  |  |  |  |  | small change in fatty acid oxidation when compared to control | Neither treatment with leucine, valine, nor B6 alone exerted any significant effect | no significant effect |  | 
